This note sets out measurements from patent publication EP2865421A1, “Bitter taste receptor agonists for topical use” (Albert-Ludwigs-Universität Freiburg, priority 2013, dated 2015).

Data set [1] concerns LAD-2 human mast cells. The data set can be described thus: Degranulation assay: histamine release from SP-stimulated LAD-2 mast cells (ELISA). Format: cell-based. The note with it: SP 2 µM, 1 h, 30 min pre-incubation, amarogentin 136 µM, azelastine 24 µM (Figure 14A). Here is the method:
(§1) LAD-2 human mast cells (obtained from Dr. A. Kirshenbaum NIH) were cultured in serum-free media (StemPro-34, Gibco, Germany) supplemented with 2mM L-glutamine and 100 ng/ml rhSCF (recombinant human stem cell factor; Cell signaling technologies). The human keratinocyte cell line HaCaT was cultured in Dulbecco's modified essential medium (DMEM; Invitrogen) containing 10% fetal calf serum (FCS; PAA, Pasching, Austria) at 37 °C in a humidified atmosphere with 5% CO2. LAD-2 cells were washed with PBS and resuspended in complete medium. LAD-2 cells (2x10^5 cells /400 µl/well) were plated in 48 well flat bottom Falcon cell culture plates from Becton Dickinson and then stimulated with SP (2 µM, Sigma-Aldrich) for 1 or 24 h. Some cells were pre-incubated for 30 min with amarogentin (136 µM, Phytolab), diphenidol (136 µM, Santa Cruz) or azelastine (24 µM, Sigma) as indicated. The supernatants were collected for further assays. Mast cell degranulation was assessed by measuring histamine in the supernatant fluid 1 h after cell stimulation with SP (2 µM). Histamine levels were assayed using a Histamine ELISA from IBL international.
(In general: An ELISA detects its analyte on a solid surface through an enzyme-linked reagent.)

Data set [2] concerns LAD-2 human mast cells. Briefly: TNF-α release from SP-stimulated LAD-2 mast cells (ELISA). The note with it: SP 2 µM, 24 h, 30 min pre-incubation, amarogentin 136 µM, diphenidol 136 µM, azelastine 24 µM (Figure 14B). Format: cell-based. Here is the method: as §1, with “assays. TNF-α, IL-6, IL-8 and MMP-1 release into” for “assays. Mast cell degranulation was assessed by measuring histamine in”, “fluid 24” for “fluid 1”, “stimulation (either LAD-2 oder HaCaT cells)” for “stimulation with SP (2 µM). Histamine levels”, “were measured by Enzyme-Linked Immunosorbent Assay (ELISA)” for “were assayed”, “a commercial kit” for “a Histamine ELISA”, “from R&D Systems according to the manual instructions.” for “from IBL international.”

The test system of data set [3] is keratinocyte cell line HaCaT. The data set can be described thus: IL-6 and MMP-1 release from HaCaT stimulated with histamine and IFN-γ (ELISA). Format: cell-based, human. Conditions: histamine + IFN-γ (200U/ml), 24 h, amarogentin 136 µM, azelastine 24 µM (Figure 15B). Here is the method: The Keratinocyte cell line HaCaT (2x10^5 cells /400 µl/well) were plated in 48 well flat bottom Falcon cell culture plates from Becton Dickinson and then stimulated with histamine (100 µl) and TNF-α (25 ng/ml) or IFNγ (200U/ml) for 24 h. Some cells were pre-incubated for 30 min with amarogentin (136 µM, Phytolab), diphenidol (136 µM, Santa Cruz) or azelastine (24 µM, Sigma) as indicated. The supernatants were collected for further assays. TNF-α, IL-6, IL-8 and MMP-1 release into the supernatant fluid 24 h after cell stimulation (either LAD-2 oder HaCaT cells) were measured by Enzyme-Linked Immunosorbent Assay (ELISA) using a commercial kit from R&D Systems according to the manual instructions.

Another data set deals with LAD-2 cells. Format: cell-based, human.
The subject of data set [4] is human primary keratinocytes (hPKs). The data set can be described thus: Differentiation marker expression in human primary keratinocytes (RT-PCR). Format: cell-based. Conditions: 3 days, amarogentin 100 µM, diphenidol 100 µM or calcium 2 mM, vs untreated control (Figure 12). Here is the method:
The human keratinocyte cell line HaCaT, the neuroblastoma cell line SH-SY5Y and the placental cell line JEG-3 were from CLS Cell Lines Service (Heidelberg, Germany) and cultured in Dulbecco's modified essential medium (DMEM; Invitrogen) containing 10% fetal calf serum (FCS; PAA, Pasching, Austria) at 37 °C in a humidified atmosphere with 5% CO2. For double fluorescence stainings the cells were seeded in a four-field chamber slides (Thermo Fisher Scientific GmbH; 1 ×10^5 cells/ml). For calcium imaging experiments, cells were seeded on polylysin (Sigma-Aldrich, Munich, Germany) coated cover slips at a density of 1.5 -2x 10^5. After isolation of human primary keratinocytes (hPK) from skin samples, the cells were incubated for 3 days with calcium (2 mM), amarogentin (100 µM) or diphenidol (100 µM) before RNA isolation and determination of the differentiation markers. Reverse transcription PCR was performed as described (Muller et al.,2008). In brief, total RNA was isolated using the Trizol reagent (Invitrogen) according to the manusfacturer's instruction. […] The PCR primers (20 pmol each) used to amplify keratin 10 (KRT10), INV, TGM and ß-actine were already published (Muller et al., 2008). ß-actine was used as internal loading control. After gel electrophoresis quantification was archived with ImageJ software.

In another data set the test system is HaCaT keratinocytes. Briefly: Calcium imaging (fura-2-am) in HaCaT keratinocytes. Conditions: for calcium influx: HaCaT cells. Format: cell-based, human. Here is the method:
The human keratinocyte cell line HaCaT, the neuroblastoma cell line SH-SY5Y and the placental cell line JEG-3 were from CLS Cell Lines Service (Heidelberg, Germany) and cultured in Dulbecco's modified essential medium (DMEM; Invitrogen) containing 10% fetal calf serum (FCS; PAA, Pasching, Austria) at 37 °C in a humidified atmosphere with 5% CO2. For double fluorescence stainings the cells were seeded in a four-field chamber slides (Thermo Fisher Scientific GmbH; 1 ×10^5 cells/ml). For calcium imaging experiments, cells were seeded on polylysin (Sigma-Aldrich, Munich, Germany) coated cover slips at a density of 1.5 -2x 10^5. After isolation of human primary keratinocytes (hPK) from skin samples, the cells were incubated for 3 days with calcium (2 mM), amarogentin (100 μM) or diphenidol (100 μM) before RNA isolation and determination of the differentiation markers. Intracellular Ca^2+ concentration measurements in single cells were carried out using the fluorescence indicator fura-2-am (Invitrogen). Cells were washed with a buffer containing 130 mM NaCl, 5 mM KCI, 10 mM HEPES, 10 mM Glucose and 1 mM CaCl2 adjusted to pH 7.4 and loaded with 2 μM fura-2-am and 0.04% Pluronic F-127 (Invitrogen) for 30 min. After rinsing twice, cells were allowed to de-esterify fura-2-am for 30 min. Measurements were performed with a monochromator-based imaging system attached to an inverted microscope (Axiovert S100, Zeiss). Fluorescence was excited at 340 and 380 nm and emission measured at 510 nm. After 60s, cells were stimulated with various concentrations of diphenidol or amarogentin, 100 μM PTC or the respective solvent control. […] receptor inhibition was performed by pre-incubation of JEG-3 cells for 1h with the […] antagonist probenecid (1 mM) before PTC stimulation. After correction of background fluorescence, the fluorescence ratio was calculated using Axiovision software.

The test system of data set [5] is SH-SY5Y neuroblastoma cells. The data set can be described thus: Calcium imaging (fura-2-am) in SH-SY5Y neuroblastoma cells. The note with it: 100 µM diphenidol, significant, maximum stated for all cell lines (Figure 8). Type of data set: cell-based, human. On the procedure: (§2) The human keratinocyte cell line HaCaT, the neuroblastoma cell line SH-SY5Y and the placental cell line JEG-3 were from CLS Cell Lines Service (Heidelberg, Germany) and cultured in Dulbecco's modified essential medium (DMEM; Invitrogen) containing 10% fetal calf serum (FCS; PAA, Pasching, Austria) at 37 °C in a humidified atmosphere with 5% CO2. For double fluorescence stainings the cells were seeded in a four-field chamber slides (Thermo Fisher Scientific GmbH; 1 ×10^5 cells/ml). For calcium imaging experiments, cells were seeded on polylysin (Sigma-Aldrich, Munich, Germany) coated cover slips at a density of 1.5 -2x 10^5. After isolation of human primary keratinocytes (hPK) from skin samples, the cells were incubated for 3 days with calcium (2 mM), amarogentin (100 μM) or diphenidol (100 μM) before RNA isolation and determination of the differentiation markers. Intracellular Ca^2+ concentration measurements in single cells were carried out using the fluorescence indicator fura-2-am (Invitrogen). Cells were washed with a buffer containing 130 mM NaCl, 5 mM KCI, 10 mM HEPES, 10 mM Glucose and 1 mM CaCl2 adjusted to pH 7.4 and loaded with 2 μM fura-2-am and 0.04% Pluronic F-127 (Invitrogen) for 30 min. […] Fluorescence was excited at 340 and 380 nm and emission measured at 510 nm. […] After correction of background fluorescence, the fluorescence ratio was calculated using Axiovision software.

A further data set relates to JEG-3 placental cells. Briefly: Calcium imaging (fura-2-am) in JEG-3 placental cells. The note with it: 100 µM diphenidol, significant, maximum stated for all cell lines (Figure 8). Type of data set: cell-based, human. Here is the method:
as §2

The next data set has as its target T1, T2R38 (Homo sapiens, UniProt P59533, A49P/I296V).
T1 construct: endogenous in cells; host or cells: JEG-3 (human placental cell line)
T1 sequence (P59533 1-333 A49P/I296V): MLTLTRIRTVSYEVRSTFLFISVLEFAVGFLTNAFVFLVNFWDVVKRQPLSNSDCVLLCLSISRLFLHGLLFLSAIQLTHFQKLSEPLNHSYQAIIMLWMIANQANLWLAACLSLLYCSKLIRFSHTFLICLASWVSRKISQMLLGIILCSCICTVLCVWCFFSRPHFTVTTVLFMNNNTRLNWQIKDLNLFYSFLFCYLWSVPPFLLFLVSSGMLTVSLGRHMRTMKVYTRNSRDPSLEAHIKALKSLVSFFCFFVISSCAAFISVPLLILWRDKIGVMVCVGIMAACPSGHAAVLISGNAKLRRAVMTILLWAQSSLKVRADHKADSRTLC
The data set can be described thus: PTC-induced calcium influx in taster cell line JEG-3 and its inhibition by probenecid. Format: cell-based. On the procedure:
Intracellular Ca^2+ concentration measurements in single cells were carried out using the fluorescence indicator fura-2-am (Invitrogen). Cells were washed with a buffer containing 130 mM NaCl, 5 mM KCI, 10 mM HEPES, 10 mM Glucose and 1 mM CaCl2 adjusted to pH 7.4 and loaded with 2 µM fura-2-am and 0.04% Pluronic F-127 (Invitrogen) for 30 min. After rinsing twice, cells were allowed to de-esterify fura-2-am for 30 min. Measurements were performed with a monochromator-based imaging system attached to an inverted microscope (Axiovert S100, Zeiss). Fluorescence was excited at 340 and 380 nm and emission measured at 510 nm. After 60s, cells were stimulated with various concentrations of diphenidol or amarogentin, 100 µM PTC or the respective solvent control. T2R38 receptor inhibition was performed by pre-incubation of JEG-3 cells for 1h with the T2R38 antagonist probenecid (1 mM) before PTC stimulation. After correction of background fluorescence, the fluorescence ratio was calculated using Axiovision software.

Data set [6] relates to keratinocyte cell line HaCaT. Briefly: IL-8 and MMP-1 release from HaCaT stimulated with histamine and TNF-α (ELISA). Format: cell-based, human. Conditions: histamine + TNF-α (25 ng/ml), 24 h, amarogentin 136 µM 30 min pre-incubation (Figure 15A). Here is the method: The Keratinocyte cell line HaCaT (2x10^5 cells /400 µl/well) were plated in 48 well flat bottom Falcon cell culture plates from Becton Dickinson and then stimulated with histamine (100 µl) and TNF-α (25 ng/ml) or IFNγ (200U/ml) for 24 h. Some cells were pre-incubated for 30 min with amarogentin (136 µM, Phytolab), diphenidol (136 µM, Santa Cruz) or azelastine (24 µM, Sigma) as indicated. The supernatants were collected for further assays.
TNF-α, IL-6, IL-8 and MMP-1 release into the supernatant fluid 24 h after cell stimulation (either LAD-2 oder HaCaT cells) were measured by Enzyme-Linked Immunosorbent Assay (ELISA) using a commercial kit from R&D Systems according to the manual instructions.

Method for HaCaT cells: (§3) The method is based on the bioluminescence measurement of ATP that is present in metabolically active cells. Luciferase catalyzes the formation of light from ATP and luciferin. The emitted light intensity is directly proportional to the ATP concentration and is measured using a luminometer (Sirius HT; MWG).
Method for LAD-2 cells: as §3

As to `CN1CCCC(n2nc(Cc3ccc(Cl)cc3)c3ccccc3c2=O)CC1` (stereo not drawn) [azelastine], in the data set on LAD-2 human mast cells [1], the histamine release result is listed as “inhibits histamine release”. Besides, the “secretion of TNF-α” value in the data set on LAD-2 human mast cells [2] was “blocked the secretion of TNF-α”. Moreover, in [3], the IL-6 production entry is “decreased” and the MMP-1 production result is given as “decreased”. Also, in the data set on LAD-2 cells, the cytotoxicity result was “no cytotoxicity”.

As to `OC(CCCN1CCCCC1)(c1ccccc1)c1ccccc1` [diphenidol], the “expression of the differentiation marker keratin 10, involucrin und transglutaminase” value in [4] is recorded as “increased”. For the same molecule, the cytotoxicity entry with HaCaT cells was “no cytotoxicity”. Further, the “calcium influx compared to the solvent control” value in the data set on HaCaT keratinocytes (100 µM diphenidol, HaCaT, significant, maximum stated for all cell lines (Figure 8)) is listed as “up to 7 fold”; in [5] it was “up to 7 fold”; with JEG-3 placental cells it was “up to 7 fold”. Also, the calcium influx result in the data set on HaCaT keratinocytes (diphenidol 30 µM, fura-2 ratio before/after stimulation vs solvent (Figure 11)) is “significant calcium influx”. Also, the “secretion of TNF-α” value with LAD-2 human mast cells [2] is “blocked the secretion of TNF-α”.

Regarding `CCCN(CCC)S(=O)(=O)c1ccc(C(=O)O)cc1` [probenecid], on T2R38 (1h pre-incubation with probenecid (1 mM), then PTC 100 µM, JEG-3 cells), the PTC-induced calcium currents result was “reduces PTC-induced calcium currents to solvent level”.

With amarogentin, in [6], the “release of IL-8” value is on record as “reduces the release” and the “release of MMP-1” value is “reduces the release”. The “expression of the differentiation marker keratin 10, involucrin und transglutaminase” value in data set [4] is reported as “increased”. In the data set with LAD-2 human mast cells [1], the histamine release result is given as “inhibits histamine release”. In the data set on HaCaT cells, the cytotoxicity entry is reported as “no cytotoxicity”. The calcium influx entry in the data set with HaCaT keratinocytes (100 µM amarogentin, vs 0.1% EtOH (Figure 11)) is recorded as “significant calcium influx”. For the same molecule, in the data set on LAD-2 human mast cells [2], the “secretion of TNF-α” value is listed as “blocked the secretion of TNF-α”. In data set [3], the IL-6 production result is “decreased” and the MMP-1 production result is reported as “decreased”. In addition, in the data set on LAD-2 cells, the cytotoxicity entry is given as “no cytotoxicity”.

As for `NC(=S)Nc1ccccc1` [PTC, Phenylthiocarbamid], the calcium influx entry at T2R38 (PTC 100 µM, JEG-3 cells (PAV taster), vs DMSO 0.05% (Figure 10)) was “induced calcium influx”.
